PubChem BioAssay (NCI)
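Assay format: 96-well plates, 48-hour exposure. Definition used: TGI = concentration required for complete inhibition of growth.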 Where a SMILES comes first, the peptide text is derived from it. [ ]: non-standard residue; d: D form. The star is where a group is joined. ξ: configuration not given here. ξW = NC(Cc1c[nH]c2ccccc12)C(=O)O; X30 = O=C(O)[C@H]1CCC[C@H]1N*; ξF = NC(Cc1ccccc1)C(=O)O; Boc = CC(C)(C)OC(=O)*; ξK = NCCCCC(N)C(=O)O; ξT = CC(O)C(N)C(=O)O; tBu = CC(C)(C)*

Experiments:
Test in all cases: NCI anticancer screen, dose series, 48 h
[1] = test system: SN12C renal
[2] = test system: COLO 205 colon
[3] = test system: SF-539 CNS
[4] = test system: SF-295 CNS
[5] = test system: HCC-2998 colon
[6] = test system: KM12 colon
[7] = test system: M14 melanoma
[8] = test system: OVCAR-5 ovarian
[9] = test system: CAKI-1 renal
[10] = test system: MCF7 breast
[11] = test system: MALME-3M melanoma
[12] = test system: HS 578T breast

O=C(/C=C/c1cccs1)c1ccc(Cl)s1
TGI [1]: 34.8 µM
TGI [2]: > 10 µM
TGI [3]: > 100 µM
TGI [4]: > 100 µM
TGI [5]: 34.7 µM
TGI [6]: 44.3 µM
TGI [7]: > 100 µM
TGI [8]: > 100 µM
TGI [9]: > 100 µM
TGI [10]: > 100 µM
TGI [11]: > 100 µM
TGI [12]: > 100 µM

O=C1Cc2c(-c3ccccc3)cc(-c3ccc4ccccc4c3)nc2-c2ccccc2N1
TGI [1]: 43.6 µM
TGI [2]: > 100 µM
TGI [3]: > 100 µM
TGI [4]: > 100 µM
TGI [5]: > 100 µM
TGI [6]: 28.3 µM
TGI [7]: > 100 µM
TGI [8]: > 100 µM
TGI [9]: 12.5 µM
TGI [10]: > 100 µM
TGI [11]: 31.9 µM
TGI [12]: 7.77 µM

Nc1ccc(-c2nc3ccccc3s2)cc1I
TGI [1]: > 100 µM
TGI [2]: > 100 µM
TGI [3]: > 100 µM
TGI [4]: > 100 µM
TGI [5]: > 100 µM
TGI [6]: > 100 µM
TGI [7]: > 100 µM
TGI [8]: > 100 µM
TGI [9]: > 100 µM
TGI [10]: > 100 µM
TGI [11]: > 100 µM
TGI [12]: > 100 µM

CCN(CC)c1nc(=O)c(C(=O)C(C)(C)C)c(C(C)(C)C)o1
TGI [1]: > 100 µM
TGI [2]: > 100 µM
TGI [3]: > 100 µM
TGI [4]: > 100 µM
TGI [5]: > 100 µM
TGI [6]: > 100 µM
TGI [7]: > 100 µM
TGI [8]: > 100 µM
TGI [9]: > 100 µM
TGI [10]: > 100 µM
TGI [11]: > 100 µM
TGI [12]: > 100 µM

CCN(CC)CCNc1ccc2ncn3c4c(OC)ccc(=O)c4c(O)c1c23
TGI [1]: > 100 µM
TGI [2]: > 100 µM
TGI [3]: 31.3 µM
TGI [4]: > 100 µM
TGI [5]: > 100 µM
TGI [6]: > 100 µM
TGI [7]: > 100 µM
TGI [8]: > 92.7 µM
TGI [9]: > 100 µM
TGI [10]: > 70.7 µM
TGI [11]: 98.6 µM
TGI [12]: > 100 µM

Cc1cccc2c(N)c3cccc(C(=O)NCCN4CCOCC4)c3nc12
TGI [1]: 7.97 µM
TGI [2]: 2.49 µM
TGI [3]: > 100 µM
TGI [4]: 10.9 µM
TGI [5]: > 100 µM
TGI [6]: 5 µM
TGI [7]: 7.33 µM
TGI [8]: 8.7 µM
TGI [9]: 17.3 µM
TGI [10]: > 32.1 µM
TGI [11]: 1.31 µM
TGI [12]: 0.43 µM

O=C1c2cscc2C(=O)c2c(OCc3ccccc3)ccc(OCc3ccccc3)c21
TGI [1]: > 100 µM
TGI [2]: > 100 µM
TGI [3]: > 100 µM
TGI [4]: > 100 µM
TGI [5]: > 100 µM
TGI [6]: > 100 µM
TGI [7]: > 100 µM
TGI [8]: > 100 µM
TGI [9]: > 100 µM
TGI [10]: > 100 µM
TGI [11]: > 100 µM
TGI [12]: > 100 µM

CC(=O)O[C@H]1CC[C@@]2(C)C(=CC[C@H]3[C@@H]4C/C(=C\c5ccncc5)[C@H](OC(C)=O)[C@@]4(C)CC[C@@H]32)C1
TGI [1]: 33 µM
TGI [2]: 18.2 µM
TGI [3]: 15.6 µM
TGI [4]: 19.5 µM
TGI [5]: 26.3 µM
TGI [6]: 16.3 µM
TGI [7]: 30.2 µM
TGI [8]: 36.6 µM
TGI [9]: 25.7 µM
TGI [10]: 30.3 µM
TGI [11]: 21.7 µM
TGI [12]: > 100 µM

O=C(Nc1ccc(N2C(=O)CSC2c2cccs2)cc1)c1ccc(N2C(=O)CSC2c2cccs2)cc1 (centres undefined)
TGI [1]: > 100 µM
TGI [2]: > 100 µM
TGI [3]: > 100 µM
TGI [4]: > 100 µM
TGI [5]: > 100 µM
TGI [6]: > 100 µM
TGI [7]: > 100 µM
TGI [8]: > 100 µM
TGI [9]: > 100 µM
TGI [10]: > 100 µM
TGI [11]: > 100 µM
TGI [12]: > 100 µM

CC(OC(C)(C)C)C(NC(=O)C(CCCCNC(=O)OC(C)(C)C)NC(=O)C(Cc1c[nH]c2ccccc12)NC(=O)C(N)Cc1ccccc1)C(=O)NC(Cc1ccccc1)C(=O)N[C@@H]1CCC[C@@H]1C(=O)O (some centres undefined) (H-[ξF][ξW][ξK](Boc)[ξT](tBu)[ξF]-X30)
TGI [1]: 67.2 µM
TGI [2]: 76.2 µM
TGI [3]: 36.5 µM
TGI [4]: > 100 µM
TGI [5]: 41.1 µM
TGI [6]: 37.2 µM
TGI [7]: > 100 µM
TGI [8]: 40.6 µM
TGI [9]: > 100 µM
TGI [10]: 62.5 µM
TGI [11]: > 100 µM
TGI [12]: 50.6 µM

O=[N+]([O-])c1cc(C(F)(F)F)ccc1S(=O)(=O)N[C@@H]1CCCC[C@H]1NS(=O)(=O)c1ccc(C(F)(F)F)cc1[N+](=O)[O-]
TGI [1]: 12.6 µM
TGI [2]: 6.77 µM
TGI [3]: 3.56 µM
TGI [4]: 9.38 µM
TGI [5]: > 39.9 µM
TGI [6]: 12.1 µM
TGI [7]: 8.95 µM
TGI [8]: > 100 µM
TGI [9]: 10 µM
TGI [10]: 5.2 µM
TGI [11]: 8.05 µM
TGI [12]: 8.27 µM

Cc1n(-c2ccccc2)c2c([n+]1Cc1ccc([N+](=O)[O-])cc1)C(=O)c1ccccc1C2=O
TGI [1]: 3.08 µM
TGI [2]: 3.07 µM
TGI [3]: 3.88 µM
TGI [4]: 15.3 µM
TGI [5]: 4.2 µM
TGI [6]: 6.54 µM
TGI [7]: 7 µM
TGI [8]: 3.46 µM
TGI [9]: 39.7 µM
TGI [10]: 2.75 µM
TGI [11]: 3.05 µM
TGI [12]: 5.51 µM

CN(C)c1ccc(/C=C2\N=C(c3ccccc3)N(/N=C3\C(=O)Nc4ccccc43)C2=O)cc1
TGI [1]: > 100 µM
TGI [2]: 81 µM
TGI [3]: > 100 µM
TGI [4]: > 100 µM
TGI [5]: > 100 µM
TGI [6]: > 100 µM
TGI [7]: > 100 µM
TGI [8]: > 100 µM
TGI [9]: > 100 µM
TGI [10]: > 100 µM
TGI [11]: > 100 µM
TGI [12]: > 100 µM

COC(=O)C(CCSc1ccccc1)C(=O)OC
TGI [1]: > 100 µM
TGI [2]: > 100 µM
TGI [3]: > 100 µM
TGI [4]: > 100 µM
TGI [5]: > 100 µM
TGI [6]: > 100 µM
TGI [7]: > 100 µM
TGI [8]: > 100 µM
TGI [9]: > 100 µM
TGI [10]: > 100 µM
TGI [11]: > 100 µM
TGI [12]: > 100 µM

CSc1n[nH]c2n[nH]c(C)c12
TGI [1]: > 100 µM
TGI [2]: > 100 µM
TGI [3]: > 100 µM
TGI [4]: > 100 µM
TGI [5]: > 100 µM
TGI [6]: > 100 µM
TGI [7]: > 100 µM
TGI [8]: > 100 µM
TGI [9]: > 100 µM
TGI [10]: > 100 µM
TGI [11]: > 100 µM
TGI [12]: > 100 µM

CC(=O)NC(CCCOC(C)=O)C(=O)NC(CCCOC(C)=O)C(=O)NC(CCCOC(C)=O)C(=O)NC(Cc1ccc([N+](=O)[O-])cc1)C(=O)NCC(=O)OCc1ccccc1 (centres undefined)
TGI [1]: > 100 µM
TGI [2]: > 100 µM
TGI [3]: > 100 µM
TGI [4]: > 100 µM
TGI [5]: > 100 µM
TGI [6]: > 100 µM
TGI [7]: > 100 µM
TGI [8]: > 100 µM
TGI [9]: > 100 µM
TGI [10]: > 100 µM
TGI [11]: > 100 µM
TGI [12]: > 100 µM

Cc1ccc(S(=O)(=O)c2ccsc2NC(=O)c2ccccc2)cc1
TGI [1]: > 100 µM
TGI [2]: > 100 µM
TGI [3]: > 100 µM
TGI [4]: > 100 µM
TGI [5]: > 100 µM
TGI [6]: > 100 µM
TGI [7]: > 100 µM
TGI [8]: > 100 µM
TGI [9]: 97.4 µM
TGI [10]: > 100 µM
TGI [11]: > 100 µM
TGI [12]: 76.2 µM

Cc1ccc(C2SC(N)=Nc3c2c(C)nn3C(=O)c2ccc(Cl)cc2)cc1 (centres undefined)
TGI [1]: > 10 µM
TGI [2]: > 10 µM
TGI [3]: > 10 µM
TGI [4]: > 10 µM
TGI [5]: > 10 µM
TGI [6]: > 10 µM
TGI [7]: > 10 µM
TGI [8]: > 10 µM
TGI [9]: > 10 µM
TGI [10]: > 10 µM
TGI [11]: > 10 µM
TGI [12]: > 10 µM

O=C(O)c1nc2cc(C(F)(F)F)ccc2[nH]c1=O
TGI [1]: > 100 µM
TGI [2]: > 100 µM
TGI [3]: > 100 µM
TGI [4]: > 100 µM
TGI [5]: > 100 µM
TGI [6]: > 100 µM
TGI [7]: > 100 µM
TGI [8]: > 100 µM
TGI [9]: > 100 µM
TGI [10]: > 100 µM
TGI [11]: > 100 µM
TGI [12]: > 100 µM

CC(=O)[C@]1(C)[C@H](C)O[C@](C)(CO)[C@H]1O[Si](C)(C)c1ccccc1
TGI [1]: > 100 µM
TGI [2]: > 100 µM
TGI [3]: > 100 µM
TGI [4]: > 100 µM
TGI [5]: > 100 µM
TGI [6]: > 100 µM
TGI [7]: > 100 µM
TGI [8]: > 100 µM
TGI [9]: 54.2 µM
TGI [10]: > 100 µM
TGI [11]: > 100 µM
TGI [12]: > 100 µM

O=c1[nH]cnc2c1ncn2C1SC(CO)C(O)C1O (centres undefined)
TGI [1]: > 100 µM
TGI [2]: > 100 µM
TGI [3]: > 100 µM
TGI [4]: > 100 µM
TGI [5]: > 100 µM
TGI [6]: > 100 µM
TGI [7]: > 100 µM
TGI [8]: > 100 µM
TGI [9]: > 100 µM
TGI [10]: > 100 µM
TGI [11]: > 100 µM
TGI [12]: > 100 µM

CN1CC(S(=O)(=O)c2ccccc2)CC(S(=O)(=O)c2ccccc2)C1c1ccccc1 (centres undefined)
TGI [1]: 25.7 µM
TGI [2]: 28 µM
TGI [3]: 36.9 µM
TGI [4]: > 100 µM
TGI [5]: 30.3 µM
TGI [6]: 38.7 µM
TGI [7]: 42.1 µM
TGI [8]: 32.7 µM
TGI [9]: 26 µM
TGI [10]: 30 µM
TGI [11]: 27.6 µM
TGI [12]: 84.1 µM
